Like-named read-outs stand apart in the source and are kept apart here.
Assays:
[1] = system: Recombinant Respiratory Syncytial virus strain A2 containing the firefly luciferase reporter (RSV-Fluc); test: microbe, parasite or virus in culture; type: cell-based; conditions: human respiratory syncytial virus, NHBE
[2] = system: SARS-CoV-2; test: microbe, parasite or virus in culture; type: cell-based
[3] = MT4 cytotoxicity (CC50); conditions: human, MT4 cells
[4] = Severe acute respiratory syndrome coronavirus 2, read-out: SARS EC50
[5] = 72 h, read-out: RSV-Fluc EC50 (NHBE), NHBE cells, three days, Table 2

Compound | EC50 ([1]; read-out: RSV EC50, Table 2a) [nM] | EC50 [2, 4] [nM] | CC50 ([3]; MT4 CC50, Table 2a) [nM] | EC50 ([1]; read-out: RSV EC50, Table 4) [nM] | CC50 ([3]; MT4 CC50, Table 4) [nM] | EC50 [1, 5] [nM] | EC50 ([1]; 72 h, read-out: RSV-Fluc EC50 (NHBE), NHBE cells, three days, Table 1) [nM] | EC50 ([2]; Severe acute respiratory syndrome coronavirus 2, 48 h, read-out: SARS-CoV-2 EC50) [nM] | CC50 ([3]; MT4 CC50, Table 1a) [nM]
CCCCCCCCCCCCCCCCCOC[C@H](COP(=O)(O)OC[C@H]1O[C@@](C#N)(c2ccc3c(N)ncnn23)[C@H](O)[C@@H]1O)OCc1cccc(C#N)c1 [Example 34, ((2R,3S,4R,5R)-5-(4-aminopyrrolo[2,1-f][1,2,4]triazin-7-yl)-5-cyano-3,4-dihydroxytetrahydrofuran-2-yl)methyl ((R)-2-((3-cyanobenzyl)oxy)-3-(heptadecyloxy)propyl) hydrogen phosphate] | 25 | 582 | 550 |  |  |  |  |  | 
CCCCCCCCCCCCCCCCCCOC[C@H](COP(=O)(O)OC[C@H]1O[C@@](C#N)(c2ccc3c(N)ncnn23)[C@H](O)[C@@H]1O)OCc1ccc(Cl)c(C#N)c1 [Example 108, [(2R,3S,4R,5R)-5-(4-aminopyrrolo[2,1-f][1,2,4]triazin-7-yl)-5-cyano-3,4-dihydroxy-tetrahydrofuran-2-yl]methyl [(2R)-2-[(4-chloro-3-cyano-phenyl)methoxy]-3-octadecoxy-propyl] hydrogen phosphate] |  | 220 |  | 83 | 713 |  |  |  | 
CCCCCCCCCCCCCCCCCCOC[C@H](COP(=O)(O)OC[C@H]1O[C@@](C#N)(c2ccc3c(N)ncnn23)[C@H](O)[C@@H]1O)Oc1cccc(C#N)n1 [Example 100, [(2R,3S,4R,5R)-5-(4-aminopyrrolo[2,1-f][1,2,4]triazin-7-yl)-5-cyano-3,4-dihydroxy-tetrahydrofuran-2-yl]methyl [(2R)-2-[(6-cyano-2-pyridyl)oxy]-3-octadecoxy-propyl]hydrogen phosphate] |  | 340 |  | 58 | 1180 |  |  |  | 
CCCCCCCCCCCCCCCCCOCCCCOP(=O)(O)OC[C@H]1O[C@@](C#N)(c2ccc3c(N)ncnn23)[C@H](O)[C@@H]1O [Example 121, [(2R,3S,4R,5R)-5-(4-Aminopyrrolo[2,1-f][1,2,4]triazin-7-yl)-5-cyano-3,4-dihydroxy-tetrahydrofuran-2-yl]methyl 4-heptadecoxybutyl hydrogen phosphate] |  | 8900 |  | 262 | 10400 |  |  |  | 
CCCCCCCCCCCCCCCCCCOC[C@H](COP(=O)(O)OC[C@H]1O[C@@](C#N)(c2ccc3c(N)ncnn23)[C@H](O)[C@@H]1O)OCc1cncc(C#N)c1 [Example 75, ((2R,3S,4R,5R)-5-(4-aminopyrrolo[2,1-f][1,2,4]triazin-7-yl)-5-cyano-3,4-dihydroxytetrahydrofuran-2-yl)methyl ((R)-2-((5-cyanopyridin-3-yl)methoxy)-3-(octadecyloxy)propyl) hydrogen phosphate] |  | 28 |  | 72 | 195 |  |  |  | 
CCCCCCCCCCCCCCCCCCOC[C@H](COP(=O)(O)OC[C@H]1O[C@@](C#N)(c2ccc3c(N)ncnn23)[C@H](O)[C@@H]1O)n1cc(C#N)nn1 [Example 81, ((2R,3S,4R,5R)-5-(4-aminopyrrolo[2,1-f][1,2,4]triazin-7-yl)-5-cyano-3,4-dihydroxytetrahydrofuran-2-yl)methyl ((R)-2-(4-cyano-1H-1,2,3-triazol-1-yl)-3-(octadecyloxy)propyl) hydrogen phosphate] |  | 1900 |  | 68 | 31100 |  |  |  | 
CCCCCCCCCCCCCCCCOCCCCOP(=O)(O)OC[C@H]1O[C@@](C#N)(c2ccc3c(N)ncnn23)[C@H](O)[C@@H]1O [Example 25, ((2R,3S,4R,5R)-5-(4-aminopyrrolo[2,1-f][1,2,4]triazin-7-yl)-5-cyano-3,4-dihydroxytetrahydrofuran-2-yl)methyl (4-(hexadecyloxy)butyl) hydrogen phosphate] | 263 | 7460 | 48900 |  |  | 70 |  |  | 
CCCCCCCCCCCCCCCCCCOC[C@H](COP(=O)(O)OC[C@H]1O[C@@](C#N)(c2ccc3c(N)ncnn23)[C@H](O)[C@@H]1O)Oc1ccc(C#N)nc1 [Example 78, ((2R,3S,4R,5R)-5-(4-aminopyrrolo[2,1-f][1,2,4]triazin-7-yl)-5-cyano-3,4-dihydroxytetrahydrofuran-2-yl)methyl ((R)-2-((6-cyanopyridin-3-yl)oxy)-3-(octadecyloxy)propyl) hydrogen phosphate] |  | 33 |  | 7 | 133 |  |  |  | 
CCCCCCCCCCCCCCCCCCOC[C@H](COP(=O)(O)OC[C@H]1O[C@@](C#N)(c2ccc3c(N)ncnn23)[C@H](O)[C@@H]1O)OCC(C)C [Example 46, ((2R,3S,4R,5R)-5-(4-aminopyrrolo[2,1-f][1,2,4]triazin-7-yl)-5-cyano-3,4-dihydroxytetrahydrofuran-2-yl)methyl ((R)-2-isobutoxy-3-(octadecyloxy)propyl) hydrogen phosphate] | 1090 | 2470 | 50000 |  |  | 1100 |  |  | 
CCCCCCCCCCCCCCCCCCOC[C@H](COP(=O)(O)OC[C@H]1O[C@@](C#N)(c2ccc3c(N)ncnn23)[C@H](O)[C@@H]1O)OCc1ccc(F)c(Cl)c1 [Example 17] |  |  |  |  |  |  | 20 | 690 | 2100
CCCCCCCCCCCCCCCCCCOC[C@H](COP(=O)(O)OC[C@H]1O[C@@](C#N)(c2ccc3c(N)ncnn23)[C@H](O)[C@@H]1O)OCc1ccc2ccccc2n1 [Example 92, ((2R,3S,4R,5R)-5-(4-aminopyrrolo[2,1-f][1,2,4]triazin-7-yl)-5-cyano-3,4-dihydroxytetrahydrofuran-2-yl)methyl ((R)-3-(octadecyloxy)-2-(quinolin-2-ylmethoxy)propyl) hydrogen phosphate] |  | 120 |  | 38 | 1760 |  |  |  | 
CCCCCCCCCCCCCCCCCCOCC(COc1ccccc1)COP(=O)(O)OC[C@H]1O[C@@](C#N)(c2ccc3c(N)ncnn23)[C@H](O)[C@@H]1O (stereo partly drawn) [Example 29, ((2R,3S,4R,5R)-5-(4-aminopyrrolo[2,1-f][1,2,4]triazin-7-yl)-5-cyano-3,4-dihydroxytetrahydrofuran-2-yl)methyl (3-(octadecyloxy)-2-(phenoxymethyl)propyl) hydrogen phosphate] | 140 | 3330 | 6160 |  |  | 140 |  |  | 
CCCCCCCCCCCCCCCCCOCCCOP(=O)(O)OC[C@H]1O[C@@](C#N)(c2ccc3c(N)ncnn23)[C@H](O)[C@@H]1O [Example 55, ((2R,3S,4R,5R)-5-(4-aminopyrrolo[2,1-f][1,2,4]triazin-7-yl)-5-cyano-3,4-dihydroxytetrahydrofuran-2-yl)methyl (3-(heptadecyloxy)propyl) hydrogen phosphate] | 86 | 9420 | 29900 |  |  |  |  |  | 
CCCCCCCC/C=C\CCCCCCCCOC[C@H](COP(=O)(O)OC[C@H]1O[C@@](C#N)(c2ccc3c(N)ncnn23)[C@H](O)[C@@H]1O)OCc1ccc(C#N)cc1F [Example 129, ((2R,3S,4R,5R)-5-(4-aminopyrrolo[2,1-f][1,2,4]triazin-7-yl)-5-cyano-3,4-dihydroxytetrahydrofuran-2-yl)methyl ((R)-2-((4-cyano-2-fluorobenzyl)oxy)-3-(((Z)-octadec-9-en-1-yl)oxy)propyl) hydrogen phosphate] |  | 110 |  | 22 | 2430 |  |  |  | 
CCCCCCCCCCCCCCCCCCOC[C@H](COP(=O)(O)OC[C@H]1O[C@@](C#N)(c2ccc3c(N)ncnn23)[C@H](O)[C@@H]1O)OCc1ccc(C#N)cc1OC [Example 114, [(2R,3S,4R,5R)-5-(4-Aminopyrrolo[2,1-f][1,2,4]triazin-7-yl)-5-cyano-3,4-dihydroxy-tetrahydrofuran-2-yl]methyl [(2R)-2-[(4-cyano-2-methoxy-phenyl)methoxy]-3-octadecoxy-propyl] hydrogen phosphate] |  | 480 |  | 93 | 1880 |  |  |  | 
CCCCCCCCCCCCCCCCCCOC[C@H](COP(=O)(O)OC[C@H]1O[C@@](C#N)(c2ccc3c(N)ncnn23)[C@H](O)[C@@H]1O)OC [Example 44, ((2R,3S,4R,5R)-5-(4-aminopyrrolo[2,1-f][1,2,4]triazin-7-yl)-5-cyano-3,4-dihydroxytetrahydrofuran-2-yl)methyl ((R)-2-methoxy-3-(octadecyloxy)propyl) hydrogen phosphate] | 53 | 917 | 4000 |  |  | 53 |  |  | 
CCCCCCCCCCOCCCOP(=O)(O)OC[C@H]1O[C@@](C#N)(c2ccc3c(N)ncnn23)[C@H](O)[C@@H]1O [Example 56, ((2R,3S,4R,5R)-5-(4-Aminopyrrolo[2,1-f][1,2,4]triazin-7-yl)-5-cyano-3,4-dihydroxytetrahydrofuran-2-yl)methyl (3-(decyloxy)propyl) hydrogen phosphate] | 5000 | 10000 | 50000 |  |  | 5000 |  |  | 
CCCCCCCCCCCCCCCCCCOC[C@H](COP(=O)(O)OC[C@H]1O[C@@](C#N)(c2ccc3c(N)ncnn23)[C@H](O)[C@@H]1O)OCc1ccc(Cl)cc1 [Example 41, ((2R,3S,4R,5R)-5-(4-aminopyrrolo[2,1-f][1,2,4]triazin-7-yl)-5-cyano-3,4-dihydroxytetrahydrofuran-2-yl)methyl ((R)-2-((4-chlorobenzyl)oxy)-3-(octadecyloxy)propyl) hydrogen phosphate] | 52 | 174 | 2410 |  |  | 52 |  |  | 
CCCCCCCCCCCCCCCCCCOC[C@H](COP(=O)(O)OC[C@H]1O[C@@](C#N)(c2ccc3c(N)ncnn23)[C@H](O)[C@@H]1O)OCc1ccccc1F [Example 42, ((2R,3S,4R,5R)-5-(4-aminopyrrolo[2,1-f][1,2,4]triazin-7-yl)-5-cyano-3,4-dihydroxytetrahydrofuran-2-yl)methyl ((R)-2-((2-fluorobenzyl)oxy)-3-(octadecyloxy)propyl) hydrogen phosphate] | 36 | 593 | 2220 |  |  | 35 |  |  | 
